From patent publication US6410255B1, “Optical probes and assays” (priority 1999, dated 2002)
*1 amine or outer side, *2 acyl side, *3 side chain or, on linkers, in order; H or OH if unused. Where a SMILES comes first, the peptide text is derived from it. Bridges are numbered along the chain shown (N, C = ends). [ ]: non-standard residue; d: D form. Adda = CO[C@@H](Cc1ccccc1)[C@@H](C)/C=C(C)/C=C/[C@H](N[*:1])[C@H](C)C(=O)[*:2]; dAsp(3S-Me) = C[C@H](C(=O)[*:3])[C@@H](N[*:1])C(=O)[*:2]; d(γGlu) = O=C(O)[C@@H](CCC(=O)[*:2])N[*:1]; NMeDha = C=C(NC)C(=O)O

Key:
Type in all cases: biochemical
[1] = target: T1, v-Abl kinase (Abelson murine leukemia virus, UniProt P00521); assay: v-Abl kinase phosphorylation of optical probe, fluorescence readout after chymotrypsin; conditions: v-Abl, abl optical probe as substrate; read-out: apparent Km for ATP
T1 construct: purchased Calbiochem

[2] = target: PP2A (Homo sapiens, UniProt P67775); assay: PP2A inhibitor assay with optical probe
Method: (§1) To determine if the optical probe phosphatase assay could detect inhibitors of PP2A, the phosphatase assay was performed in the presence or absence of 100 nM microcystin-LR. PP2A assays were set up as described above, and were incubated at 30 C for 2 hours. Reactions were diluted to 100 μL with 50 mM HEPES, pH 7.5 followed by the addition of chymotrypsin to 0.2 μM. Fluorescence values were measured on the Cytofluor after a 1.5 hour incubation at room temperature. As described above, treatment of the phosphorylated optical probe (SEQ. ID. NO: 23) with PP2A followed by chymotrypsin gave a final 460/530 ratio of 8.8±0.1. […] Thus, the optical probe based phosphatase assay can detect inhibitors of PP2A activity.

[3] = target: PP1 (Homo sapiens, UniProt P62136); assay: PP1 inhibitor assay with optical probe
Method: (§2) To determine if the optical probe protein phosphatase assay could detect inhibitors of PP1, the phosphatase assay was performed in the presence or absence of 1 μM microcystin-LR, a potent inhibitor of PP1. Phosphatase assays were set up as described above except the phosphatase was allowed to pre-incubate with microcystin-LR for 10 minutes before the addition of phosphorylated or non-phosphorylated optical probes (SEQ. ID. NO: 23). PP1 reactions were incubated at 30 C for 1 hour and then diluted to 100 μL in 50 mM HEPES, pH 7.5 followed by the addition of chymotrypsin to 0.2 μM. Fluorescence values were measured on the Cytofluor after a 2 hour incubation at room temperature as described above. After treatment of the phosphorylated optical probe with PP1 followed by chymotrypsin, the 460/530 ratio was 13.2±0.2. […] Thus, the present invention could be used to detect inhibitors of PP1 activity.

[4] = target: chymotrypsin (Bos taurus, UniProt P00766); assay: Control: effect of inhibitor on chymotrypsin cleavage of non-phosphorylated probe
Method: as §2, §1

PP2A, sequence (P67775 whole entry): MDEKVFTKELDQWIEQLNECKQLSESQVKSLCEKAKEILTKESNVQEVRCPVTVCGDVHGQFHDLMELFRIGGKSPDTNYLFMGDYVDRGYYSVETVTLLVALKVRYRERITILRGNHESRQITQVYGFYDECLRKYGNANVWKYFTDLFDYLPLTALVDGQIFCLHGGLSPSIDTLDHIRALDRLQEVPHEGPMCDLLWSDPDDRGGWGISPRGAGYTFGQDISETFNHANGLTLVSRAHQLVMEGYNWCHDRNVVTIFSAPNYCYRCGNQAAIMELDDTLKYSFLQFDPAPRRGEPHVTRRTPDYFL
PP1, sequence (P62136 whole entry): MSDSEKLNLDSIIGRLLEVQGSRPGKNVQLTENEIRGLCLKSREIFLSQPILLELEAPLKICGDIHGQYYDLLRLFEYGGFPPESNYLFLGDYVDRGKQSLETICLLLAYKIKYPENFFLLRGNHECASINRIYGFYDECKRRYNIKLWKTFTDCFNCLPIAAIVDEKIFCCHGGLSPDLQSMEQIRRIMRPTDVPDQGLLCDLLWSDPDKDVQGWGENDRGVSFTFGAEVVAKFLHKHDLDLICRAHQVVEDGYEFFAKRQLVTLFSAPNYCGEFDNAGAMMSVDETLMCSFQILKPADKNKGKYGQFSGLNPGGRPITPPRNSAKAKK
T1 sequence (P00521 whole entry): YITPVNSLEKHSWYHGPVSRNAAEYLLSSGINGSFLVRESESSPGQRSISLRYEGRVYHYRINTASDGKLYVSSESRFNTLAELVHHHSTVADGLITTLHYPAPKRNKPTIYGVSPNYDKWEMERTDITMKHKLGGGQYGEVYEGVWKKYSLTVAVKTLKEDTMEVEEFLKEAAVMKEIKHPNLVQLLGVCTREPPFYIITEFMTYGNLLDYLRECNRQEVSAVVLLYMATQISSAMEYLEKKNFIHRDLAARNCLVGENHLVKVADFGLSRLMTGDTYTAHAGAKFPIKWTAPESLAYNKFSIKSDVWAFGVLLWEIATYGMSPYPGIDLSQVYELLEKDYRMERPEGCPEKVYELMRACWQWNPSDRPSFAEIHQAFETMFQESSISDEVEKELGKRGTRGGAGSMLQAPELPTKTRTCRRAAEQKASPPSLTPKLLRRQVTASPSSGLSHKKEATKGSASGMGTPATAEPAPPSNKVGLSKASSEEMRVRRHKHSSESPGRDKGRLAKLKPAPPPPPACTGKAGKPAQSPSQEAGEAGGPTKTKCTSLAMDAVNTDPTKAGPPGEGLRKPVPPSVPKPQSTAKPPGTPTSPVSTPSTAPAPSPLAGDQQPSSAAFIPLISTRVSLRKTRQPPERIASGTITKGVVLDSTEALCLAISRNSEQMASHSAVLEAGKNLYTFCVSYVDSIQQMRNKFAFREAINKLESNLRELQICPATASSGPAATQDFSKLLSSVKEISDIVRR

Structure (SMILES) | Km [1] | 460/530 ratio After Chymotrypsin, Phosphorylated Optical probe + PP2A + microcystin-LR [2] | 460/530 ratio Before Chymotrypsin, Phosphorylated Optical probe + PP2A + microcystin-LR [2] | inhibition of PP2A activity [2] | 460/530 ratio After Chymotrypsin, Phosphorylated Optical probe + PP1 + microcystin-LR [3] | inhibition of PP1 activity [3] | 460/530 ratio After Chymotrypsin, Non-phosphorylated Optical probe + PP1 + microcystin-LR [4] | 460/530 ratio After Chymotrypsin, Non-phosphorylated Optical probe + PP2A + microcystin-LR [4] | 460/530 ratio Before Chymotrypsin, Non-phosphorylated Optical probe + PP2A + microcystin-LR [4] | inhibition of chymotrypsin cleavage [4]
Nc1ncnc2c1ncn2[C@@H]1O[C@H](COP(=O)(O)OP(=O)(O)OP(=O)(O)O)[C@@H](O)[C@H]1O [ATP] | 8 µM | – | – | – | – | – | – | – | – | –
C=C1C(=O)N[C@H](C)C(=O)N[C@@H](CC(C)C)C(=O)N[C@@H](C(=O)O)[C@H](C)C(=O)N[C@@H](CCCNC(=N)N)C(=O)N[C@@H](/C=C/C(C)=C/[C@H](C)[C@H](Cc2ccccc2)OC)[C@H](C)C(=O)N[C@@H](C(=O)O)CCC(=O)N1C [microcystin-LR, reference compound] (R[Adda][d(γGlu)][NMeDha][dA]L[dAsp(3S-Me)]-OH; lactam N-7) | – | 1.9 ± 0.1 | 1.4 ± 0.1 | completely inhibited | 2.8 ± 0.1 | almost completely inhibited | 13.3 ± 0.2 | 11.1 ± 0.2 | 1.4 ± 0.1 | did not inhibit
